Key:
[1] = biological target: Ribosomal protein S6 kinase alpha-5 (Homo sapiens) (UniProt O75582); assay: Inhibition of human full length MSK1 expressed in baculovirus assessed as substrate phosphorylation using fluorescence-labelled peptides as substrate at 9 uM after 90 mins by microfluidic peptide phosphorylation assay
[2] = biological target: Protein kinase C delta type (Homo sapiens) (UniProt Q05655); assay: Inhibition of human truncated PKC delta expressed in baculovirus assessed as substrate phosphorylation using fluorescence-labelled peptides as substrate at 9 uM after 90 mins by microfluidic peptide phosphorylation assay
Protein kinase C delta type (Homo sapiens), sequence (Q05655 whole entry, looked up, the tested form may be a part): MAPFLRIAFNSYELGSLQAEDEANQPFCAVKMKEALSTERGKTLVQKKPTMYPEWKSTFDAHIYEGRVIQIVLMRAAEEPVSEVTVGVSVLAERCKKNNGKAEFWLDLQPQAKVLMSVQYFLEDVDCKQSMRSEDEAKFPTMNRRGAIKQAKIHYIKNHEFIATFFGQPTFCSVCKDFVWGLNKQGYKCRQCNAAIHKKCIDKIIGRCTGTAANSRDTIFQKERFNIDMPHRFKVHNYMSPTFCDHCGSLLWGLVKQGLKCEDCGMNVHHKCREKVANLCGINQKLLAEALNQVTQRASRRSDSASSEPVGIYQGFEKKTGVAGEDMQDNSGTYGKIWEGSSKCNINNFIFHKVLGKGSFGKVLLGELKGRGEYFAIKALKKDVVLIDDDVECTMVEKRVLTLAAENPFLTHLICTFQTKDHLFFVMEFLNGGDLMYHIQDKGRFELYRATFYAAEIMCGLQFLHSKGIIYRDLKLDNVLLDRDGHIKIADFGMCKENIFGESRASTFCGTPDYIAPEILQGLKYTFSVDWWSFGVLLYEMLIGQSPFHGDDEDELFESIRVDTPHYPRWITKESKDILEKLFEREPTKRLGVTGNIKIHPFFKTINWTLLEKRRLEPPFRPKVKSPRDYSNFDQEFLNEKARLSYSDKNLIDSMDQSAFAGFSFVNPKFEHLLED

[3] = biological target: Tyrosine-protein kinase BTK (Homo sapiens) (UniProt Q06187); assay: Inhibition of human full length BTK expressed in baculovirus assessed as substrate phosphorylation using fluorescence-labelled peptides as substrate at 9 uM after 90 mins by microfluidic peptide phosphorylation assay
[4] = biological target: Serine/threonine-protein kinase MARK2 (Homo sapiens) (UniProt Q7KZI7); assay: Inhibition of human full length MARK2 expressed in baculovirus assessed as substrate phosphorylation using fluorescence-labelled peptides as substrate at 0.06 uM after 90 mins by microfluidic peptide phosphorylation assay
Serine/threonine-protein kinase MARK2 (Homo sapiens), sequence (Q7KZI7 whole entry, the tested form may be a part): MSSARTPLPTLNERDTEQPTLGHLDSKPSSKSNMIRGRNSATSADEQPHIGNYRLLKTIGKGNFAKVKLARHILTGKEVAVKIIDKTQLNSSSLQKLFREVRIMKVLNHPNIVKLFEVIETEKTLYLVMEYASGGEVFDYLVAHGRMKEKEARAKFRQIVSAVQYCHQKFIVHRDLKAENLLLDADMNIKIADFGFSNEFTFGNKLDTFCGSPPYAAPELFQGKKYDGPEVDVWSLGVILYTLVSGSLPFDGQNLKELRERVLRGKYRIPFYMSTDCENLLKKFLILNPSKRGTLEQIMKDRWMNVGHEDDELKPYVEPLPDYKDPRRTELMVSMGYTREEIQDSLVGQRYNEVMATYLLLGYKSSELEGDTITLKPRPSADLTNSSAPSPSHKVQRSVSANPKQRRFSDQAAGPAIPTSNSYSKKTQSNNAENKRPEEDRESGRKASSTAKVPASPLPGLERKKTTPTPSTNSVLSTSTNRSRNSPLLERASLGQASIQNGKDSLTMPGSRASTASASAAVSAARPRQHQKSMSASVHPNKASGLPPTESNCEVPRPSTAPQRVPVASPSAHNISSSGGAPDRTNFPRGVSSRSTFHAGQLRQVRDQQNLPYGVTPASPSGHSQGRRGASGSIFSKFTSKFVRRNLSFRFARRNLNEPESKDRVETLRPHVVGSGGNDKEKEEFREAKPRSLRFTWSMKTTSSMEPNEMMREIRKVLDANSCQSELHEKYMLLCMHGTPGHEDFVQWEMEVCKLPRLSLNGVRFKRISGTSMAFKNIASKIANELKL

[5] = biological target: T1, Serine/threonine-protein kinase BRSK1 (Homo sapiens) (UniProt Q8TDC3); assay: Inhibition of human full length BRSK1 expressed in baculovirus assessed as substrate phosphorylation using fluorescence-labelled peptides as substrate at 0.06 uM after 90 mins by microfluidic peptide phosphorylation assay
T1 sequence (whole entry): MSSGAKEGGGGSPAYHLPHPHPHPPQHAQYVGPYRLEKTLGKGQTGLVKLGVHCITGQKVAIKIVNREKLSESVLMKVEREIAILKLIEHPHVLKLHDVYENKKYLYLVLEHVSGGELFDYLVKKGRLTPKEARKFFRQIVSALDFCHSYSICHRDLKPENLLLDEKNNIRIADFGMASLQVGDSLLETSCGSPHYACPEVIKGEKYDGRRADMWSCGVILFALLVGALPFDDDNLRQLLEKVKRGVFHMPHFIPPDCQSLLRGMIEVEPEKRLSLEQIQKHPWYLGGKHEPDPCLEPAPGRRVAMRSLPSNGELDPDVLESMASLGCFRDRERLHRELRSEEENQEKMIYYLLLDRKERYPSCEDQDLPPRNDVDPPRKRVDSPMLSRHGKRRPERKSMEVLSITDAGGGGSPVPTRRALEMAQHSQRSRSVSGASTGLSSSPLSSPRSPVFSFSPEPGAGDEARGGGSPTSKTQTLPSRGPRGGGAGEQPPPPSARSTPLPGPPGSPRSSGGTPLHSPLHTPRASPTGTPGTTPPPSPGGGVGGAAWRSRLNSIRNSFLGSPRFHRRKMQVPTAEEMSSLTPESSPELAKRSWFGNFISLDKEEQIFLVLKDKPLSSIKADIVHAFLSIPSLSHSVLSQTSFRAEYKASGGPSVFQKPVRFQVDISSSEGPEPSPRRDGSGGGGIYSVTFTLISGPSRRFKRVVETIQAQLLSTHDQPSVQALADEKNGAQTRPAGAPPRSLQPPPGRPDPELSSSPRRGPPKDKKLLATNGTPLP

[6] = biological target: Protein kinase C gamma type (Homo sapiens) (UniProt P05129); assay: Inhibition of human truncated PKC gamma expressed in baculovirus assessed as substrate phosphorylation using fluorescence-labelled peptides as substrate at 2 uM after 90 mins by microfluidic peptide phosphorylation assay
[7] = biological target: T2, Aurora kinase A (Homo sapiens) (UniProt O14965); assay: Inhibition of human full length AurA expressed in baculovirus assessed as substrate phosphorylation using fluorescence-labelled peptides as substrate at 8 uM after 90 mins by microfluidic peptide phosphorylation assay
T2 sequence (whole entry): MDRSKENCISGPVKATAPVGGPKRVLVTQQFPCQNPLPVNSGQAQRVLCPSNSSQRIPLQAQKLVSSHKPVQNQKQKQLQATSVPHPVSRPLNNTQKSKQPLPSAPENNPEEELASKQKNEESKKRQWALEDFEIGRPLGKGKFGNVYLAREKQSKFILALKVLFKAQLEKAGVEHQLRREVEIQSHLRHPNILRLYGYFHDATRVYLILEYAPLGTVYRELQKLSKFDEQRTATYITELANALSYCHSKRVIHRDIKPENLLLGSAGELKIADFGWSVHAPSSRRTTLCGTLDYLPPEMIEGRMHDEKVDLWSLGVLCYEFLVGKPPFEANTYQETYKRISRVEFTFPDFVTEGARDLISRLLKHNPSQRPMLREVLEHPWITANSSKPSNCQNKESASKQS

[8] = biological target: Serine/threonine-protein kinase MARK2 (Homo sapiens) (UniProt Q7KZI7); assay: Inhibition of human full length MARK2 expressed in baculovirus assessed as substrate phosphorylation using fluorescence-labelled peptides as substrate at 8 uM after 90 mins by microfluidic peptide phosphorylation assay
[9] = biological target: Calcium/calmodulin-dependent protein kinase type II subunit beta (Homo sapiens) (UniProt Q13554); assay: Inhibition of human CAMK2 beta catalytic domain expressed in baculovirus assessed as substrate phosphorylation using fluorescence-labelled peptides as substrate at 8 uM after 90 mins by microfluidic peptide phosphorylation assay
Calcium/calmodulin-dependent protein kinase type II subunit beta (Homo sapiens), sequence (Q13554 whole entry, the tested form may be a part): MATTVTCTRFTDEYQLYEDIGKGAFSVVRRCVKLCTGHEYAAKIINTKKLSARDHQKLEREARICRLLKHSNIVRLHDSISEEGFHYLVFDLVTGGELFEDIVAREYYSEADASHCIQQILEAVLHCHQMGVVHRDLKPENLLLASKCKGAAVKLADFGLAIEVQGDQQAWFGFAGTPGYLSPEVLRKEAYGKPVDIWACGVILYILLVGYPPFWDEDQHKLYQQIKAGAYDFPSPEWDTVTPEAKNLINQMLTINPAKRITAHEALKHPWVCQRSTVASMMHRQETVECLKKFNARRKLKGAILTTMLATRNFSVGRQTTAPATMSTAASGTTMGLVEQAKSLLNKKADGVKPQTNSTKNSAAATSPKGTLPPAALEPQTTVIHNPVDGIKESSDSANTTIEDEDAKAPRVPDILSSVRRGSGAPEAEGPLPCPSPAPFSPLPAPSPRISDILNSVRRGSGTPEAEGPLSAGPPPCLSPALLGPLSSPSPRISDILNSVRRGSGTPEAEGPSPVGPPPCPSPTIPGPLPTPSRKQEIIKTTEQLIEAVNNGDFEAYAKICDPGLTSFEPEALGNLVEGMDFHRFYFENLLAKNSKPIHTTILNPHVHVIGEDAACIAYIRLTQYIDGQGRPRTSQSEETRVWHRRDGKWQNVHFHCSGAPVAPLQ

[10] = biological target: Receptor-type tyrosine-protein kinase FLT3 (Homo sapiens) (UniProt P36888); assay: Inhibition of human FLT3 catalytic domain expressed in baculovirus assessed as substrate phosphorylation using fluorescence-labelled peptides as substrate at 8 uM after 90 mins by microfluidic peptide phosphorylation assay
Receptor-type tyrosine-protein kinase FLT3 (Homo sapiens), sequence (P36888 whole entry, the tested form may be a part): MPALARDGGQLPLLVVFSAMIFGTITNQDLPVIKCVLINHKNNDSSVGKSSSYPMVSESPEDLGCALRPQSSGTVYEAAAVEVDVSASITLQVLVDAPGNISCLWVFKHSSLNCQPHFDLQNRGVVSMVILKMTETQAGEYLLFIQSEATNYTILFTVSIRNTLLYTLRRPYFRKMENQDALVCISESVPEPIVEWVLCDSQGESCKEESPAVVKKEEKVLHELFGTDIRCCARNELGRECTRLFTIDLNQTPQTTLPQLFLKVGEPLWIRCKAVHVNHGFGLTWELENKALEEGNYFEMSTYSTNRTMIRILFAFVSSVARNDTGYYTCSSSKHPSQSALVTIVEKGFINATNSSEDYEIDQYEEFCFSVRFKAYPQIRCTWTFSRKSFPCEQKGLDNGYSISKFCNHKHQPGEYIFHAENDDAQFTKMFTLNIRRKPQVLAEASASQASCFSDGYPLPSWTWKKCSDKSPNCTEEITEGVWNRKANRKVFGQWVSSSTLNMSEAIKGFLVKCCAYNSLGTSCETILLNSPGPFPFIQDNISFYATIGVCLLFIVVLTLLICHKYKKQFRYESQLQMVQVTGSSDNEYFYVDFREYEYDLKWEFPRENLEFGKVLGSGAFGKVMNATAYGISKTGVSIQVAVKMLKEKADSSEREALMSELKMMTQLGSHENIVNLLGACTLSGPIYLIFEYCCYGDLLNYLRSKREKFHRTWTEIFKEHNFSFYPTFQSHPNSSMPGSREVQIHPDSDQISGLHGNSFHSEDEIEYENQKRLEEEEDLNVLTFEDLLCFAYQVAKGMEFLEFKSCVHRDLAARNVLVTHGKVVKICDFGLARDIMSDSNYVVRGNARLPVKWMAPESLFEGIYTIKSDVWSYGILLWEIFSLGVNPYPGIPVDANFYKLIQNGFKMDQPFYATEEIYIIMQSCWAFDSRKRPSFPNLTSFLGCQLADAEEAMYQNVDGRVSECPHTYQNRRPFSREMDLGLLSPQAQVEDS

[11] = biological target: Hepatocyte growth factor receptor (Homo sapiens) (UniProt P08581); assay: Inhibition of human MET cytoplasmic domain expressed in baculovirus assessed as substrate phosphorylation using fluorescence-labelled peptides as substrate at 8 uM after 90 mins by microfluidic peptide phosphorylation assay
[12] = biological target: Serine/threonine-protein kinase pim-1 (Homo sapiens) (UniProt P11309); assay: Inhibition of human full length PIM1 expressed in baculovirus assessed as substrate phosphorylation using fluorescence-labelled peptides as substrate at 1000 uM after 90 mins by microfluidic peptide phosphorylation assay
Serine/threonine-protein kinase pim-1 (Homo sapiens), sequence (P11309 whole entry, looked up, the tested form may be a part): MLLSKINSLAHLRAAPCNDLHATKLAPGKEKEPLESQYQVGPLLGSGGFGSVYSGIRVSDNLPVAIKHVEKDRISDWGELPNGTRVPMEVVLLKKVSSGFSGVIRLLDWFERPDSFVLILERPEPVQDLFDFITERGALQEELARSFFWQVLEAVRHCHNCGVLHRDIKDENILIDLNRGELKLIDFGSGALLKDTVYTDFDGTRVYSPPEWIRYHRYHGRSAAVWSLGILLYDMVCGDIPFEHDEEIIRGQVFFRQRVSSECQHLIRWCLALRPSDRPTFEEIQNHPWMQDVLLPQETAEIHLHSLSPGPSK

[13] = biological target: Calcium/calmodulin-dependent protein kinase type II subunit beta (Homo sapiens) (UniProt Q13554); assay: Inhibition of human CAMK2 beta catalytic domain expressed in baculovirus assessed as substrate phosphorylation using fluorescence-labelled peptides as substrate at 1000 uM after 90 mins by microfluidic peptide phosphorylation assay
[14] = biological target: T3, Interleukin-1 receptor-associated kinase 4 (Homo sapiens) (UniProt Q9NWZ3); assay: Inhibition of human IRAK4 catalytic domain expressed in baculovirus assessed as substrate phosphorylation using fluorescence-labelled peptides as substrate at 1000 uM after 90 mins by microfluidic peptide phosphorylation assay
T3 sequence (whole entry): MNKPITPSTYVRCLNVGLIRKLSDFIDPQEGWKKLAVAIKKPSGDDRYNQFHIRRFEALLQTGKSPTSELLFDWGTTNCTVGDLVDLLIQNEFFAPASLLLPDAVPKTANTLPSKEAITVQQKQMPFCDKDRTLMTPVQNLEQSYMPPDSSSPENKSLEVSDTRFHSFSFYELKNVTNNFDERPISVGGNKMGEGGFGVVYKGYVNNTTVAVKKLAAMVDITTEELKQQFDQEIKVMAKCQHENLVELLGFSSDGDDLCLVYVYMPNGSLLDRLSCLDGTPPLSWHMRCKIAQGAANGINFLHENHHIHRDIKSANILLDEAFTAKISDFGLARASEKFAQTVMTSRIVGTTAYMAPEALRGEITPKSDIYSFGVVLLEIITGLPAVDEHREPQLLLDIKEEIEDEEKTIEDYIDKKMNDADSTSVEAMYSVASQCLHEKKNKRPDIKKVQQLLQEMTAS

Ribosomal protein S6 kinase alpha-5 (Homo sapiens), sequence (O75582 whole entry, looked up, the tested form may be a part): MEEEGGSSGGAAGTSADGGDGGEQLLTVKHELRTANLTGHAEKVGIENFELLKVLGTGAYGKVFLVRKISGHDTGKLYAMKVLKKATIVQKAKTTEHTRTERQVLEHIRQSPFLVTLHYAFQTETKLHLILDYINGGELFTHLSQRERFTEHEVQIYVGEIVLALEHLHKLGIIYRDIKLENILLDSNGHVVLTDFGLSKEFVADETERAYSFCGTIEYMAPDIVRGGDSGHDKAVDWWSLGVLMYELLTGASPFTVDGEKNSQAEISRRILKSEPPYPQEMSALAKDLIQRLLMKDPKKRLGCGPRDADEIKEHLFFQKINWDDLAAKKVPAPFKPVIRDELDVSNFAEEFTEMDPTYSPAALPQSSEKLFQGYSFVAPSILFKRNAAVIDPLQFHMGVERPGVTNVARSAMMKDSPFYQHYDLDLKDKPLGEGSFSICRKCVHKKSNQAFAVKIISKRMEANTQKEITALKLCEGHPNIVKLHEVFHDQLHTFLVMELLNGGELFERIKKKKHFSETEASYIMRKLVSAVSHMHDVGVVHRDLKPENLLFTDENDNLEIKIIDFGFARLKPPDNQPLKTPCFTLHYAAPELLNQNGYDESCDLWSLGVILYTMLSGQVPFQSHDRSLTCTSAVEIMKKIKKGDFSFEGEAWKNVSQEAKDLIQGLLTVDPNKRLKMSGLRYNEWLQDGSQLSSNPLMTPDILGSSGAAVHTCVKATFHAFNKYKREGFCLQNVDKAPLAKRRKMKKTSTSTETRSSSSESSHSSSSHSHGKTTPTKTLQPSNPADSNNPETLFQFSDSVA

NCC1CN(c2ncnc3[nH]c4cnccc4c23)CCO1 (centres undefined)
inhibition [1]: 60% | inhibition [2]: 37.5% | inhibition [3]: 11%

NC1(Cc2ccc(Cl)cc2)CCN(c2ncnc3[nH]ccc23)CC1
inhibition [4]: 0% | inhibition [5]: 0%

NC1CCN(c2ncnc3[nH]ccc23)CC1
inhibition [6]: 57.5%

NCC1CCN(c2ncnc3[nH]ccc23)CC1
inhibition [7]: 87.5% | inhibition [8]: 37% | inhibition [9]: 81% | inhibition [10]: 0% | inhibition [11]: 9%

c1cnc2[nH]ccc2c1
inhibition [12]: 20% | inhibition [13]: 30% | inhibition [14]: 65%

From ChEMBL document CHEMBL3132769, “Fragment growing to retain or alter the selectivity of anchored kinase hinge-binding fragments” (Medchemcomm, 2014)
